Data on 18 molecules can be found in ChEMBL document CHEMBL1909046, “DrugMatrix in vitro pharmacology data”.

Molecules are shown by their SMILES. pIC50, pKi: −log10 of the molar value.

In experiment [1] the target is T1, Alpha-1D adrenergic receptor (Homo sapiens, UniProt P25100). Note: in other assays of this panel Not Active means under 50% inhibition at 10 µM.
T1 sequence (P25100 whole entry): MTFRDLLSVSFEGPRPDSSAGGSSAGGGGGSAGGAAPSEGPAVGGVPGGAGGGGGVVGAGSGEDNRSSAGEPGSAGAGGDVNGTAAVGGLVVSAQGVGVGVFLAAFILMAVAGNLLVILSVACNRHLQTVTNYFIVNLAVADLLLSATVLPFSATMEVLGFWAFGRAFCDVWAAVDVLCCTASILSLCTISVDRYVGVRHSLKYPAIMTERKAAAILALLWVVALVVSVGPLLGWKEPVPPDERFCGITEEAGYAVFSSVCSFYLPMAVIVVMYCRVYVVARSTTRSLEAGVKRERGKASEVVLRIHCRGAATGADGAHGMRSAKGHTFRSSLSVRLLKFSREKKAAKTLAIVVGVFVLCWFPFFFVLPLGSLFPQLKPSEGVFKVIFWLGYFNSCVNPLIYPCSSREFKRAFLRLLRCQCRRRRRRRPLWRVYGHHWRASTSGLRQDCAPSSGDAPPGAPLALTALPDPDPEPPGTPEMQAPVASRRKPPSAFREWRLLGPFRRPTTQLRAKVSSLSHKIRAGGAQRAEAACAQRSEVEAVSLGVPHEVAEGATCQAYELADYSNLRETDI
The format is cell membranes, HEK293, Membrane. As to conditions: for IC50: hek293; for pIC50: read-out: IC50; for pKi: read-out: Ki.

Experiment [2] in a line: DRUGMATRIX: Tumor Necrosis Factor (TNF), Non-Selective radioligand binding (ligand: [125I] TNF-alpha). The format is cell membranes, Membrane. As to conditions: u-937; Not Active = under 50% inhibition at 10 µM.
The target in experiment [3] is T2, Cholecystokinin receptor type A (Homo sapiens, UniProt P32238). Note: in other assays of this panel Not Active means under 50% inhibition at 10 µM.
T2 sequence (P32238 whole entry): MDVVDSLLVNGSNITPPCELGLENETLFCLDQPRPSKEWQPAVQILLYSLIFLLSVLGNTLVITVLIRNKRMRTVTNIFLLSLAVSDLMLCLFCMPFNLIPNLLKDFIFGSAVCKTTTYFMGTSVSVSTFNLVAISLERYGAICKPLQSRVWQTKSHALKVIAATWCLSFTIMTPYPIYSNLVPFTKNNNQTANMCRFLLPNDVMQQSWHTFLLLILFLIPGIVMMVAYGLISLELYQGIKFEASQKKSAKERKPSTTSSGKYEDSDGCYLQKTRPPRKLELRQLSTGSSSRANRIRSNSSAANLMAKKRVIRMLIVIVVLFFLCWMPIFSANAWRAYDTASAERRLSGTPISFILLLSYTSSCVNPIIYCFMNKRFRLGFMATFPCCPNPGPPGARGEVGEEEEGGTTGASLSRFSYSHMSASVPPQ
The format is cell membranes, Membrane. Particulars: 1321-n1.

Experiment [4] can be described thus: DRUGMATRIX: Glutamate, NMDA, Agonism radioligand binding (ligand: [3H] CGP-39653). In kind it is cell membranes, Rattus norvegicus, Wistar, Cerebral cortex, Membrane. Particulars: Not Active = under 50% inhibition at 10 µM.
Experiment [5] deals with Histamine H2 receptor (Homo sapiens, UniProt P25021). In kind it is cell membranes, CHO-K1, Membrane. Particulars: cho-k1.
For experiment [6], the target named is Mitogen-activated protein kinase 1 (Homo sapiens, UniProt P28482). In words: DRUGMATRIX: Protein Serine/Threonine Kinase, ERK2 enzyme inhibition (substrate: Myelin Basic Protein). More on the design: species or system Escherichia coli. Particulars: Not Active = under 50% inhibition at 10 µM.
Experiment [7] deals with T3, Glucocorticoid receptor (Homo sapiens, UniProt P04150).
T3 sequence (P04150 whole entry): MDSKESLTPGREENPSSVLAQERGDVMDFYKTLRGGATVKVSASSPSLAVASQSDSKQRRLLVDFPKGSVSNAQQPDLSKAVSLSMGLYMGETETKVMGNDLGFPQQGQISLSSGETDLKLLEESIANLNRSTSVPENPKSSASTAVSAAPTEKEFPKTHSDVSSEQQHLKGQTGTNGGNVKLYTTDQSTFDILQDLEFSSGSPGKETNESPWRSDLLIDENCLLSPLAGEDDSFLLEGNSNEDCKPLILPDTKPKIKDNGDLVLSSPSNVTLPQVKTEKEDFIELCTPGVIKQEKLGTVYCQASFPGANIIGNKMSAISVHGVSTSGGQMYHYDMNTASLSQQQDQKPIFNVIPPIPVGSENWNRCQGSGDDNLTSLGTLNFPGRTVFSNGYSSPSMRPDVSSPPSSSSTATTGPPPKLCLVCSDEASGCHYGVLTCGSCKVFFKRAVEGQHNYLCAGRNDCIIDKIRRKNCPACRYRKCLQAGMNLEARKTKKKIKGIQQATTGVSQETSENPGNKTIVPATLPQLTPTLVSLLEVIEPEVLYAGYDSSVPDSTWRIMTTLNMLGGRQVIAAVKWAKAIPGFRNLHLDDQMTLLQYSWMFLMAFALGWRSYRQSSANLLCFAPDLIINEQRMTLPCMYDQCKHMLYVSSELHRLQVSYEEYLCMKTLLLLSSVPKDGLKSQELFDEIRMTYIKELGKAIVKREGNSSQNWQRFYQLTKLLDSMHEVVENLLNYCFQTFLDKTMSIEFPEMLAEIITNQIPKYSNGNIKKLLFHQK
As to conditions: hela s3.

Chain of Histamine H2 receptor (P25021 whole entry): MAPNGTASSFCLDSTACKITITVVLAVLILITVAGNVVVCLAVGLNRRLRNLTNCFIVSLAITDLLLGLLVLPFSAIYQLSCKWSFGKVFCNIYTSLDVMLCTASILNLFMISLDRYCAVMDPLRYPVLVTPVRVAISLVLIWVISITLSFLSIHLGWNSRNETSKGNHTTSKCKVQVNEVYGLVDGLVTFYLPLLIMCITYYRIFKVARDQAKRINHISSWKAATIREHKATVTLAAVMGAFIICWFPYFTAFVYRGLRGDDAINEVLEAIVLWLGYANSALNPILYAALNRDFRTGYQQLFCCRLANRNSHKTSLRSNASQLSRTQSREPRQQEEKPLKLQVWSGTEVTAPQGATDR
Chain of Mitogen-activated protein kinase 1 (P28482 whole entry): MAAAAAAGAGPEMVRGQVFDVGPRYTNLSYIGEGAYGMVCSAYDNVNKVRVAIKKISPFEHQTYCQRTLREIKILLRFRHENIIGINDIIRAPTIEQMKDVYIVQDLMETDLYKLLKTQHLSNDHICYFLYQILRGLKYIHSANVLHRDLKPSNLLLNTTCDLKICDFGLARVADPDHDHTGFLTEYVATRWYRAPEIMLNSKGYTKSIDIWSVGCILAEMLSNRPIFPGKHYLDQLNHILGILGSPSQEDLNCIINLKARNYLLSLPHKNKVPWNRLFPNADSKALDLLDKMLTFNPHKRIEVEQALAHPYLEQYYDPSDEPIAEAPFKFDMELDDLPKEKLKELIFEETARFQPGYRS

Turning to `CCOC(N)=O`, the IC50 result in experiment [1], in experiment [2], in experiment [3], in experiment [4], in experiment [5] and in experiment [6] was “Not Active” in each case. For the same molecule, the Ki entry in experiment [2] and in experiment [4] was “Not Active” throughout.

`CC(=O)Nc1nnc(S(N)(=O)=O)s1` [ACETAZOLAMIDE]: the IC50 result in experiment [1], in experiment [3], in experiment [5], in experiment [6] and in experiment [7] was “Not Active” in each case.

`O=c1[nH]c2ccccc2n1CCCN1CCC(n2c(=O)[nH]c3cc(Cl)ccc32)CC1` [DOMPERIDONE]: the pIC50 in experiment [1] is 5.97. Also, the negative logarithm of the Ki (pKi) in experiment [1] is 6.28. Further, the IC50 entry in experiment [3], in experiment [5], in experiment [6] and in experiment [7] was “Not Active” in each case.

Take `CC1=C(CC(=O)O)c2cc(F)ccc2/C1=C\c1ccc(S(C)(=O)=O)cc1` [EXISULIND]: the IC50 result in experiment [1], in experiment [2], in experiment [3], in experiment [4] and in experiment [5] was “Not Active” throughout. Moreover, the Ki result in experiment [2] and in experiment [4] was “Not Active” throughout. In experiment [6] (read-out: IC50), the negative-log IC50 (pIC50) is 4.86.

As for `CC(C)OC(=O)C(C)(C)Oc1ccc(C(=O)c2ccc(Cl)cc2)cc1` [FENOFIBRATE], the IC50 entry in experiment [1], in experiment [3], in experiment [5], in experiment [6] and in experiment [7] was “Not Active” in each case.

On to `CN1C2CCCC1CC(NC(=O)c1nn(C)c3ccccc13)C2` (stereo not given) [GRANISETRON], for which the IC50 result in experiment [1], in experiment [3], in experiment [5] and in experiment [6] was “Not Active” throughout.

As for `Nc1nc2c(c(=O)[nH]1)N(C=O)C(CNc1ccc(C(=O)N[C@@H](CCC(=O)O)C(=O)O)cc1)CN2` (stereo not given in full) [LEUCOVORIN], the IC50 entry in experiment [1], in experiment [2], in experiment [3], in experiment [4], in experiment [5] and in experiment [7] was “Not Active” throughout. The Ki result in experiment [2] and in experiment [4] was “Not Active” in each case.

As for `CC[C@@H](CO)NC(=O)[C@@H]1C=C2c3cccc4c3c(cn4C)C[C@H]2N(C)C1` [METHYSERGIDE], the IC50 entry in experiment [1], in experiment [3], in experiment [5] and in experiment [6] was “Not Active” in each case.

Consider `CN(CCOc1ccc(CC2SC(=O)NC2=O)cc1)c1ccccn1` (stereo not given) [ROSIGLITAZONE], for which the IC50 entry in experiment [1], in experiment [2], in experiment [3], in experiment [4], in experiment [5] and in experiment [6] was “Not Active” in each case. Also, the Ki entry in experiment [2] and in experiment [4] was “Not Active” in each case.

Turning to `CO[C@H]1C[C@@H]2CC[C@@H](C)[C@@](O)(O2)C(=O)C(=O)N2CCCC[C@H]2C(=O)O[C@H]([C@H](C)C[C@@H]2CC[C@@H](O)[C@H](OC)C2)CC(=O)[C@H](C)/C=C(\C)[C@@H](O)[C@@H](OC)C(=O)[C@H](C)C[C@H](C)/C=C/C=C/C=C/1C` [SIROLIMUS], the IC50 entry in experiment [1], in experiment [2], in experiment [3], in experiment [4], in experiment [5] and in experiment [6] was “Not Active” each time. Also, the Ki entry in experiment [2] and in experiment [4] was “Not Active” in each case.

In the case of `Nc1ccc(S(=O)(=O)Nc2ncccn2)cc1` [SULFADIAZINE], the IC50 result in experiment [1], in experiment [2], in experiment [3], in experiment [4], in experiment [5] and in experiment [6] was “Not Active” each time. Besides, the Ki result in experiment [2] and in experiment [4] was “Not Active” in each case.

`COc1ncnc(NS(=O)(=O)c2ccc(N)cc2)c1OC` [SULFADOXINE]: the IC50 entry in experiment [1], in experiment [2], in experiment [3], in experiment [4], in experiment [5] and in experiment [6] was “Not Active” each time. The Ki result in experiment [2] and in experiment [4] was “Not Active” throughout.

For the molecule `C[C@]12CC[C@H]3[C@@H](CCC4=CC(=O)CC[C@@]43C)[C@@H]1CC[C@@H]2O` [TESTOSTERONE], the IC50 entry in experiment [1], in experiment [2], in experiment [3], in experiment [4], in experiment [5] and in experiment [6] was “Not Active” each time. In addition, the Ki result in experiment [2] and in experiment [4] was “Not Active” in each case.

On to `CCS(=O)(=O)CCn1c([N+](=O)[O-])cnc1C` [TINIDAZOLE], for which the IC50 result in experiment [1], in experiment [2], in experiment [3], in experiment [4], in experiment [5] and in experiment [6] was “Not Active” throughout. The Ki result in experiment [2] and in experiment [4] was “Not Active” each time.

For `NC[C@H]1O[C@H](O[C@H]2[C@H](O)[C@@H](O[C@H]3O[C@H](CO)[C@@H](O)[C@H](N)[C@H]3O)[C@H](N)C[C@@H]2N)[C@H](N)C[C@@H]1O` [TOBRAMYCIN], the IC50 entry in experiment [1], in experiment [2], in experiment [3], in experiment [4], in experiment [5] and in experiment [6] was “Not Active” each time. Also, the Ki entry in experiment [2] and in experiment [4] was “Not Active” each time.

For `O=c1n(CCCN2CCN(c3cccc(Cl)c3)CC2)nc2ccccn12` [TRAZODONE], the negative-log IC50 (pIC50) in experiment [1] was 6.58. Besides, the negative logarithm of the Ki (pKi) in experiment [1] is 6.89. For the same molecule, the IC50 entry in experiment [3], in experiment [5] and in experiment [6] was “Not Active” each time.

Take `O=C(O)C(Cl)(Cl)Cl` [TRICHLOROACETIC ACID]: the IC50 entry in experiment [1], in experiment [2], in experiment [3], in experiment [4], in experiment [5] and in experiment [6] was “Not Active” throughout. In addition, the Ki result in experiment [2] and in experiment [4] was “Not Active” each time.

Take `CC(=O)O[C@H]1C[C@@H]2CC[C@@H]3[C@H](CC[C@@]4(C)[C@H]3C[C@H]([N+]3(C)CCCCC3)[C@@H]4OC(C)=O)[C@@]2(C)C[C@@H]1N1CCCCC1.[Br-]` [VECURONIUM BROMIDE]: the IC50 entry in experiment [1], in experiment [2], in experiment [3], in experiment [4], in experiment [5] and in experiment [6] was “Not Active” in each case. The Ki result in experiment [2] and in experiment [4] was “Not Active” throughout.

One may read the pIC50 as −log10 of the IC50, conventionally taken in molar units. For orientation: pKi means −log10 of the Ki, conventionally taken in molar units.
